Measured values: article PMC9963398, “Discovery of New Quinolone-Based Diarylamides as Potent B-RAF^V600E/C-RAF Kinase Inhibitors Endowed with Promising In Vitro Anticancer Activity” (International Journal of Molecular Sciences, 2023)

Assays:
PC-3 = assay: cells; settings: Homo sapiens
Experimental: (§1) The anticancer screening of target compounds over a full panel of 60 human cancer cell lines was carried out using Sulforhodamine B (SRB) assay at the National Cancer Institute (NCI), Bethesda, Maryland, USA, employing the standard protocol.

MDA-MB-231/ATCC = assay: cells; settings: Homo sapiens
Experimental: as §1

MDA-MB-468 = assay: cells; settings: Homo sapiens
Experimental: as §1

C-RAF = C-RAF (Homo sapiens, UniProt P04049); assay: HotSpot kinase assay (RBC), C-RAF; settings: IC50 C-RAF, 10 µM ATP, 10-dose singlicate IC50 mode
From the text: Reaction Biology Corporation (RBC) Kinase HotSpotSM service was utilized for cell-free biochemical kinase evaluation of the target compounds according to the reported assay protocol [46].

SF-268 = assay: NCI-60 five-dose SRB assay; assay type: cell-based; settings: Homo sapiens; SF-268, CNS cancer, five-dose test
In short: (§2)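 Compounds went through the NCI's full 60-cell-line human tumour panel. Growth was measured by sulforhodamine B staining according to the institute's routine procedure.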

NCI/ADR-RES = assay: NCI-60 five-dose SRB assay; assay type: cell-based; settings: Homo sapiens, Ovarian cancer, five-dose test
In short: as §2

HS 578T = assay: NCI-60 five-dose SRB assay; assay type: cell-based; settings: Homo sapiens, Breast cancer, five-dose test
In short: as §2

UACC-257 = assay: NCI-60 five-dose SRB assay; assay type: cell-based; settings: Homo sapiens; UACC-257, Melanoma, five-dose test
In short: as §2

MOLT-4 = assay: NCI-60 five-dose SRB assay; assay type: cell-based; settings: Homo sapiens; MOLT-4, Leukemia, five-dose test
In short: as §2

SNB-75 = assay: NCI-60 five-dose SRB assay; assay type: cell-based; settings: Homo sapiens; SNB-75, CNS cancer, five-dose test
In short: as §2

NCI-H460 = assay: NCI-60 five-dose SRB assay; assay type: cell-based; settings: Homo sapiens; NCI-H460, NSCL cancer, five-dose test
In short: as §2

UACC-62 = assay: NCI-60 five-dose SRB assay; assay type: cell-based; settings: Homo sapiens; UACC-62, Melanoma, five-dose test
In short: as §2

MCF7 = assay: NCI-60 five-dose SRB assay; assay type: cell-based; settings: Homo sapiens; MCF7, Breast cancer, five-dose test
In short: as §2

HOP-92 = assay: NCI-60 five-dose SRB assay; assay type: cell-based; settings: Homo sapiens; HOP-92, NSCL cancer, five-dose test
In short: as §2

SF-295 = assay: NCI-60 five-dose SRB assay; assay type: cell-based; settings: Homo sapiens; SF-295, CNS cancer, five-dose test
In short: as §2

SK-MEL-28 = assay: NCI-60 five-dose SRB assay; assay type: cell-based; settings: Homo sapiens; SK-MEL-28, Melanoma, five-dose test
In short: as §2

KM12 = assay: NCI-60 five-dose SRB assay; assay type: cell-based; settings: Homo sapiens; KM12, Colon cancer, five-dose test
In short: as §2

A549/ATCC = assay: NCI-60 five-dose SRB assay; assay type: cell-based; settings: Homo sapiens, NSCL cancer, five-dose test
In short: as §2

COLO 205 = assay: NCI-60 five-dose SRB assay; assay type: cell-based; settings: Homo sapiens; COLO 205, Colon cancer, five-dose test
In short: as §2

IGROV1 = assay: NCI-60 five-dose SRB assay; assay type: cell-based; settings: Homo sapiens, IGROV-1; IGROV1, Ovarian cancer, five-dose test
In short: as §2

[1] = test system: NCI-60 human tumor cell lines; assay: NCI-60 five-dose testing, ranges over panel or subpanel; assay type: cell-based; settings: Homo sapiens, range over lines
Experimental: as §1

Chain of C-RAF (P04049 whole entry): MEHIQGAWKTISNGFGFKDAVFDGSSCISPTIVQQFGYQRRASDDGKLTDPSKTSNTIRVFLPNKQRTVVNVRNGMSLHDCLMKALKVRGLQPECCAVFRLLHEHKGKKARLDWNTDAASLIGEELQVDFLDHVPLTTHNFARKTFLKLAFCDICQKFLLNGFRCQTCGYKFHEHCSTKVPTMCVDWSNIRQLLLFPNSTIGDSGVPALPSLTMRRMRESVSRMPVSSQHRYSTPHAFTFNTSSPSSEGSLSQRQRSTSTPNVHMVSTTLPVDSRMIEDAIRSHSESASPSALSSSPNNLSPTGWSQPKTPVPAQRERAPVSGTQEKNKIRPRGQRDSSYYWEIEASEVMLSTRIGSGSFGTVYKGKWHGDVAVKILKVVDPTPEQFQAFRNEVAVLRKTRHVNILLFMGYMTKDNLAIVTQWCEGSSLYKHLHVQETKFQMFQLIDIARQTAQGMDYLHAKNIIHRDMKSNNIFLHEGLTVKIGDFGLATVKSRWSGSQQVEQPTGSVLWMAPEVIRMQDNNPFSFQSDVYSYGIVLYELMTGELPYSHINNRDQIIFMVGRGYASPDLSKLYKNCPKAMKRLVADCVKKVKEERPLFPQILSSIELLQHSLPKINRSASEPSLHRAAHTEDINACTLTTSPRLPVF

Compound | GI50 (PC-3) [nM] | GI50 (MDA-MB-231/ATCC) [nM] | GI50 (MDA-MB-468) [nM] | IC50 (C-RAF) [nM] | GI50 (SF-268) [nM] | GI50 (NCI/ADR-RES) [nM] | GI50 (HS 578T) [nM] | GI50 (UACC-257) [nM] | GI50 (MOLT-4) [nM] | GI50 (SNB-75) [nM] | GI50 (NCI-H460) [nM] | GI50 (UACC-62) [nM] | GI50 (MCF7) [nM] | GI50 (HOP-92) [nM] | GI50 (SF-295) [nM] | GI50 (SK-MEL-28) [nM] | GI50 (KM12) [nM] | GI50 (A549/ATCC) [nM] | GI50 (COLO 205) [nM] | GI50 (IGROV1) [nM] | further results
COc1cccc2nc(Nc3cccc(NC(=O)c4ccc(CN5CCN(C)CC5)c(C(F)(F)F)c4)c3)ccc12 [Compound 14a, 4-((4-methylpiperazin-1-yl)methyl)-N-(3-((5-methoxyquinolin-2-yl)amino)phenyl)-3-(trifluoromethyl)benzamide] | 1700 | 1770 | 1920 | 151 ± 2.35 | 1690 | 2280 | 1840 | 1980 | 1450 | 1600 | 1710 | 1750 | 1570 | 1500 | 1770 | 1710 | 2130 | 2440 | 1790 | 2250 | –
COc1cccc2nc(Nc3cccc(NC(=O)c4ccc(CN5CCCN(C)CC5)c(C(F)(F)F)c4)c3)ccc12 [Compound 14b, N-(3-((5-methoxyquinolin-2-yl)amino)phenyl)-4-((4-methyl-1,4-diazepan-1-yl)methyl)-3-(trifluoromethyl)benzamide] | 1540 | 1830 | 1560 | 192 ± 0.6 | 1770 | 1720 | 2460 | 1860 | 1240 | 1520 | 1760 | 1810 | 1590 | – | 1740 | 1680 | 2490 | 1900 | 1810 | 1810 | –
CCN1CCN(Cc2ccc(C(=O)Nc3cccc(Nc4ccc5c(OC)cccc5n4)c3)cc2C(F)(F)F)CC1 [Compound 14c, 4-((4-ethylpiperazin-1-yl)methyl)-N-(3-((5-methoxyquinolin-2-yl)amino)phenyl)-3-(trifluoromethyl)benzamide] | 2140 | 1540 | 1600 | 182 ± 15.2 | 2170 | 2280 | 1960 | 1510 | 1230 | 1200 | 1470 | 1530 | 1500 | 1580 | 1520 | 1560 | 2200 | 2500 | 1740 | 3090 | –
COc1cccc2nc(Nc3ccc(F)c(NC(=O)c4ccc(CN5CCN(C)CC5)c(C(F)(F)F)c4)c3)ccc12 [Compound 15a, N-(2-fluoro-5-((5-methoxyquinolin-2-yl)amino)phenyl)-4-((4-methylpiperazin-1-yl)methyl)-3-(trifluoromethyl)benzamide] | 12000 | 12100 | 4790 | 161 ± 1.57 | 11100 | – | 14100 | 16300 | 4100 | 9090 | 15900 | 16200 | 12300 | 6640 | 17100 | 15300 | 15400 | 12200 | 17200 | 14500 | GI50 ([1]; all cancer cell lines): 3610 to 18800 nM; GI50 ([1]; melanoma cell lines): 11700 to 16300 nM
